Experimental findings from ChEMBL document CHEMBL4346715, “Antibacterial activity study of 1,2,4-triazole derivatives” (Eur J Med Chem, 2019) are described below.

Test [1] has as its system Escherichia coli. Kind of test: Antibacterial activity against Escherichia coli assessed as zone of inhibition. The class given is functional.
For test [2], the system named is Staphylococcus aureus. Kind of test: Antibacterial activity against Staphylococcus aureus assessed as zone of inhibition. The class given is functional.
In test [3] the test system is Bacillus subtilis. Kind of test: Antibacterial activity against Bacillus subtilis assessed as zone of inhibition. The test is classed as functional.
The test system of the next test is Salmonella typhimurium. Description: Antibacterial activity against Salmonella typhimurium assessed as zone of inhibition. The class given is functional, Salmonella enterica subsp. enterica serovar Typhimurium.
In test [4] the test system is Listeria monocytogenes. Kind of test: Antibacterial activity against Listeria monocytogenes ATCC 35152 after 24 hrs by broth microdilution method. The class given is functional. Particulars: ATCC 35152, 24 h. (Broth dilution looks for growth in wells or tubes with falling amounts of substance.)
Test [5] relates to Pseudomonas aeruginosa. Kind of test: Antibacterial activity against Pseudomonas aeruginosa ATCC 27853 after 24 hrs by broth microdilution method. The test is classed as functional. As to conditions: ATCC 27853, 24 h.
Test [6] concerns Listeria monocytogenes. Description: Potency index, ratio of ciprofloxacin MIC to test compound MIC for Listeria monocytogenes ATCC 35152 after 24 hrs by broth microdilution method. The test is classed as functional.
Test [7] relates to Pseudomonas aeruginosa. Kind of test: Potency index, ratio of ciprofloxacin MIC to test compound MIC for Pseudomonas aeruginosa ATCC 27853 after 24 hrs by broth microdilution method. The class given is functional.
A further test has as its system Micrococcus luteus. Description: Antibacterial activity against Micrococcus luteus incubated for 18 hrs post 30 mins pre-diffusion by disk diffusion method. The class given is functional. (In agar diffusion tests the substance spreads into inoculated agar from a disc or well.)
Test [8] relates to Bacillus subtilis. Kind of test: Antibacterial activity against Bacillus subtilis incubated for 18 hrs post 30 mins pre-diffusion by disk diffusion method. The test is classed as functional.
The subject of test [9] is Escherichia coli. Kind of test: Antibacterial activity against Escherichia coli incubated for 18 hrs post 30 mins pre-diffusion by disk diffusion method. The class given is functional.
In a further test the test system is Listeria innocua. Description: Antibacterial activity against Listeria innocua incubated for 18 hrs post 30 mins pre-diffusion by disk diffusion method. The test is classed as functional.
In test [10] the test system is Staphylococcus aureus. Kind of test: Antibacterial activity against methicillin-resistant Staphylococcus aureus incubated for 18 hrs post 30 mins pre-diffusion by disk diffusion method. The test is classed as functional.
A further test has as its system Bacillus anthracis. Kind of test: Antibacterial activity against Bacillus anthracis incubated for 18 hrs post 30 mins pre-diffusion by disk diffusion method. The test is classed as functional.
The subject of test [11] is Escherichia coli. Description: Antibacterial activity against Escherichia coli. The class given is functional.
The subject of test [12] is Staphylococcus aureus. Kind of test: Antibacterial activity against Staphylococcus aureus. The test is classed as functional.
A further test relates to Streptococcus pneumoniae. Kind of test: Antibacterial activity against Streptococcus pneumoniae. The test is classed as functional.
The test system of test [13] is Bacillus subtilis. Kind of test: Antibacterial activity against Bacillus subtilis. The test is classed as functional.
The next test relates to Clostridium tetani. Kind of test: Antibacterial activity against Clostridium tetani. The class given is functional.
The test system of another test is Candida albicans. Description: Antifungal activity against Candida albicans. The class given is functional.
The subject of the next test is Trichophyton rubrum. Description: Antifungal activity against Trichophyton rubrum. The class given is functional.
The next test has as its system Aspergillus niger. Kind of test: Antifungal activity against Aspergillus niger. The test is classed as functional.
Another test relates to Plasmodium falciparum. Kind of test: Antiplasmodial activity against Plasmodium falciparum. The class given is functional, organism-based.

In brackets after ≈: the same amount, converted by molar mass.

As to `N#Cc1ccc(-c2nc(-c3ccccc3)c(-c3ccccc3)n2-n2c(-c3ccc(Cl)cc3)n[nH]c2=S)cc1`, the “inhibition zone (IZ)” value in the test with Escherichia coli [1], with Staphylococcus aureus [2], in the test with Bacillus subtilis [3] and in the test with Salmonella typhimurium was 10 - 18 mm each time.
In the case of `COc1ccccc1/C=N/n1c(S)nnc1-c1sc(-c2ccccc2)nc1C`, the MIC with Listeria monocytogenes [4] and against Pseudomonas aeruginosa [5] was 1.95 µg/mL (≈ 4.78 µM) throughout. The Ratio with Listeria monocytogenes [6] and with Pseudomonas aeruginosa [7] was 2 each time.
`CN(C)[C@@H]1C(O)=C(C(N)=O)C(=O)[C@@]2(O)C(O)=C3C(=O)c4c(O)cccc4[C@@](C)(O)[C@H]3C[C@@H]12` [TETRACYCLINE]: the “inhibition zone (IZ)” value in the test on Escherichia coli [1], in the test with Staphylococcus aureus [2], in the test with Bacillus subtilis [3] and in the test on Salmonella typhimurium was 14 - 17 mm each time. In addition, the MIC against Micrococcus luteus lay within 20 to 21 µg/mL (≈ 45 to 47.3 µM); with Bacillus subtilis [8], 20 to 21 µg/mL (≈ 45 to 47.3 µM); against Escherichia coli [9], 20 to 21 µg/mL (≈ 45 to 47.3 µM); against Listeria innocua, 20 to 21 µg/mL (≈ 45 to 47.3 µM); in the test with Staphylococcus aureus [10], 31 to 1000 µg/mL (≈ 69.8 to 2250 µM); against Bacillus anthracis, 31 to 1000 µg/mL (≈ 69.8 to 2250 µM).
Consider `S=c1[nH]nc(-c2ccc(Cl)cc2)n1-n1c(-c2ccc(Br)cc2)nc(-c2ccccc2)c1-c1ccccc1`, for which the “inhibition zone (IZ)” value with Escherichia coli [1], with Staphylococcus aureus [2], in the test with Bacillus subtilis [3] and in the test on Salmonella typhimurium was 10 - 18 mm each time.
With `Cc1nc(-c2ccccc2)sc1-c1nnc(S)n1/N=C/c1cccs1`, the MIC with Listeria monocytogenes [4] and in the test with Pseudomonas aeruginosa [5] was 1.95 µg/mL (≈ 5.08 µM) throughout. The Ratio with Listeria monocytogenes [6] and in the test on Pseudomonas aeruginosa [7] was 2 each time.
Consider `Cc1nc(-c2ccccc2)sc1-c1nnc(S)n1/N=C/c1ccc([N+](=O)[O-])cc1`, for which the MIC against Listeria monocytogenes [4] and against Pseudomonas aeruginosa [5] was 1.95 µg/mL (≈ 4.62 µM) throughout. Further, the Ratio in the test with Listeria monocytogenes [6] and in the test with Pseudomonas aeruginosa [7] was 2 throughout.
On to `Fc1ccc(-c2nc(-c3ccccc3)c(-c3ccccc3)n2-n2c(-c3ccc(Cl)cc3)n[nH]c2=S)cc1`, for which the “inhibition zone (IZ)” value in the test with Escherichia coli [1], in the test with Staphylococcus aureus [2], with Bacillus subtilis [3] and with Salmonella typhimurium was 10 - 18 mm in each case.
`Cn1cnc(CN(CCCO)Cc2ncn(C)n2)n1`: the MIC against Micrococcus luteus, in the test with Bacillus subtilis [8], in the test on Escherichia coli [9] and against Listeria innocua was 7 to 15 µg/mL (≈ 26.4 to 56.5 µM) throughout.
Consider `COC(=O)c1ncn(CN(Cn2cnc(C(=O)OC)n2)C(C)C)n1`, for which the MIC in the test on Micrococcus luteus, in the test on Bacillus subtilis [8], in the test with Escherichia coli [9] and in the test on Listeria innocua was 7 to 15 µg/mL (≈ 20.8 to 44.5 µM) throughout.
In the case of `Cc1nc(-c2ccccc2)sc1-c1nnc(S)n1/N=C/c1ccc(N(C)C)cc1`, the MIC against Listeria monocytogenes [4] and in the test with Pseudomonas aeruginosa [5] was 1.95 µg/mL (≈ 4.64 µM) throughout. The Ratio with Listeria monocytogenes [6] and in the test on Pseudomonas aeruginosa [7] was 2 in each case.
For `CC(C)N(Cc1ncn(C)n1)Cc1ncn(C)n1`, the MIC in the test on Micrococcus luteus, against Bacillus subtilis [8], against Escherichia coli [9] and in the test with Listeria innocua was 7 to 15 µg/mL (≈ 28.1 to 60.2 µM) in each case.
Regarding `COC(=O)c1ncn(CNCn2cnc(C(=O)OC)n2)n1`, the MIC against Micrococcus luteus, with Bacillus subtilis [8], against Escherichia coli [9] and against Listeria innocua was 7 to 15 µg/mL (≈ 23.7 to 50.8 µM) in each case.
With `COc1cccc(/C=N/n2c(S)nnc2-c2sc(-c3ccccc3)nc2C)c1`, the MIC against Listeria monocytogenes [4] and with Pseudomonas aeruginosa [5] was 1.95 µg/mL (≈ 4.78 µM) throughout. Besides, the Ratio in the test with Listeria monocytogenes [6] and in the test with Pseudomonas aeruginosa [7] was 2 in each case.
On to `Cc1nn(-c2ccccc2)c(-n2cncn2)c1-c1cc(-c2ccc(F)cc2)nc2nc3ccccc3n12`, for which the MIC is 62.5 to 125 µg/mL (≈ 128 to 257 µM) against Escherichia coli [11]; 62.5 to 125 µg/mL (≈ 128 to 257 µM) against Staphylococcus aureus [12]; 62.5 to 125 µg/mL (≈ 128 to 257 µM) in the test with Streptococcus pneumoniae; 62.5 to 125 µg/mL (≈ 128 to 257 µM) in the test with Bacillus subtilis [13]; 62.5 to 125 µg/mL (≈ 128 to 257 µM) with Clostridium tetani; 100 to 500 µg/mL (≈ 206 to 1030 µM) against Candida albicans. Besides, the MIC in the test with Trichophyton rubrum and against Aspergillus niger was 100 to 500 µg/mL (≈ 206 to 1030 µM) throughout. This compound also registered a half-inhibitory concentration (IC50) in the test on Plasmodium falciparum of 0.041 µg/mL (≈ 0.0843 µM).
`C=C[C@H]1CN2CC[C@H]1C[C@H]2[C@H](O)c1ccnc2ccc(OC)cc12` [QUININE] gave an IC50 in the test with Plasmodium falciparum of 0.268 µg/mL (≈ 0.826 µM).

In general, MIC refers to the least concentration at which growth counts as inhibited. Higher therefore signals a need for much substance. The IC50 is the concentration that gives 50% inhibition. The low end stands for greater potency in that assay, the high end for weaker potency in that assay.
